Data from patent US5859026A, “Quinoline carboxylic acid” (priority 1995, dated 1999).
≈ marks a conversion by molar mass, not a printed value.

Columns and labels:
[1] = test system: Male Wistar rats; assay: Induction of convulsions, intracerebroventricular (i.c.v.) administration; format: in vivo, rat; conditions: 30 minutes after i.p. fenbufen 50 mg/kg, observed at least 4 hours; for Induction of convulsion, i.c.v. (number of rats with convulsions): animals with convulsions/animals tested
Experimental: 2) Intracerebroventricular (i.c.v.) administration
Male Wistar rats (weighing 180-220 g) were anesthetized with sodium pentobarbital at 45 mg/kg, i.p., and then the head of the rat was fixed in a stereotaxic apparatus. A stainless steel guide cannula for intracerebroventricular injectionin in 0.6 mm diameter was implanted as a guide cannula so as to be positioned at 1.5 mm above the left lateral cerebroventricle (A:6.2,R:1.0,H:+1.0) according to the brain atlas of De Groot (1959). The guide cannula was fixed by using a dental cement, and then closed with a stainless steel stylet in 0.3 mm diameter. Potassium penicillin G (10,000 units) were subcutaneously administered to prevent an infection. The rats were subjected to the experiments after recovery time for several days from the surgery.
For the measurement of the induction of convulsions, 50 mg/kg of fenbufen was intraperitoneally administered, and then the test compound was intracerebroventricularly administered after 30 minutes from the administration of fenbufen by means of a stainless steel cannula in 0.3 mm diameter that was connected with a polyethylene catheter and adjusted so as to be 1.5 mm longer than the guide cannula for an administration at an accurate position of cerebroventricle (H:+1.0). […] After the completion of the above experiment, the administered positions were confirmed by intraventricularly injecting 10 μl of 1% Evans blue to each of the rats, and followed by sectioning the brains.

[2] = test system: Chinese hamster lung cell line (CHL cell); assay: Chromosomal aberration test; format: cell-based; conditions: 100 μg/ml, 6 hours treatment at 37° C., then 18 hours in fresh medium
Experimental: 2. Chromosomal aberration test
The experiments were carried out using a Chinese hamster lung cell line (CHL cell). The test compounds prepared were added to cultured cells, and cultivation was continued for 6 hours at 37° C. in 5% CO2. 2-(2-furyl)-3-(5-nitro-2-furyl) acrylamide was used as a positive control. After the cultivation for 6 hours, the cells were washed and added with fresh medium, and then cultivation was further continued for 18 hours. Colcemide solution was added to the culture 2 hours before the completion of the cultivation, and the chromosomal specimens were prepared after the cultivation was completed. Incidence rates of aberration cells were measured at the treatments with 100 μg/ml of the test compounds.

[3] = test system: male ICR mice; assay: Induction of convulsions, intraperitoneal (i.p.) administration; format: in vivo, mouse; conditions: 100 mg/kg i.p., 30 minutes after oral fenbufen 100 mg/kg; for Induction of convulsion, i.p. (number of mice with convulsions): animals with convulsions/animals tested
From the text: 4. The induction of convulsions
1) Intraperitoneal (i.p.) administration

[4] = test system: E. colacae 963; assay: Antibacterial activity (MIC), standard strain; format: cell-based; conditions: Enterobacter cloacae; standard strain E. colacae 963, Gram -, 10^6 viable cells per ml; read-out: minimum inhibitory concentration (MIC)
Experimental: (§1) 1. Antibacterial spectrum against standard strains and clinically isolated strains
Antibacterial activities (minimum inhibitory concentration: MIC) were determined according to the standard method of the Japan Society of Chemotherapy (Chemotherapy (Tokyo), 29 (1), 76, 1981) by using standard strains and strains isolated from patients of infectious disease (clinically isolated strains) and applying 10^6 viable cells per ml. […].

[5] = test system: S. marcescens IAM 1184; assay: Antibacterial activity (MIC), standard strain; format: cell-based; conditions: Serratia marcescens, IAM1184; standard strain S. marcescens IAM 1184, Gram -, 10^6 viable cells per ml; read-out: minimum inhibitory concentration (MIC)
From the text: as §1

[6] = test system: K. pneumoniae PCI-602; assay: Antibacterial activity (MIC), standard strain; format: cell-based; conditions: Klebsiella pneumoniae, PCI602; standard strain K. pneumoniae PCI-602, Gram -, 10^6 viable cells per ml; read-out: minimum inhibitory concentration (MIC)
From the text: as §1

[7] = test system: S. aureus FDA 209P JC-1; assay: Antibacterial activity (MIC), standard strain; format: cell-based; conditions: Staphylococcus aureus, FDA209P; standard strain S. aureus FDA 209P JC-1, Gram +, 10^6 viable cells per ml; read-out: minimum inhibitory concentration (MIC)
From the text: as §1

[8] = test system: E. coli NIHJ JC-2; assay: Antibacterial activity (MIC), standard strain; format: cell-based; conditions: Escherichia coli, NIHJJC2; standard strain E. coli NIHJ JC-2, Gram -, 10^6 viable cells per ml; read-out: minimum inhibitory concentration (MIC)
From the text: as §1

[9] = test system: Male Hartley guinea pigs; assay: Phototoxicity; format: in vivo, guinea pig; conditions: 10 mg/kg intravenous, UV exposure 90 minutes, observed 24 hours after irradiation; animals with erythemas/animals tested
Experimental: Male Hartley guinea pigs were intravenously administered with test compounds at a dose of 10 mg/kg, and then immediately exposed to WVA on their backs for 90 minutes. Erythemas on the UV irradiated skin were observed 24 hours after the irradiation.

[10] = test system: S. aureus HPC527; assay: Antibacterial activity (MIC), clinically isolated strain; format: cell-based; conditions: Staphylococcus aureus; clinical isolate S. aureus HPC527, Gram +, 10^6 viable cells per ml; read-out: minimum inhibitory concentration (MIC)
From the text: as §1

[11] = test system: A. calcoaceticus HNR904; assay: as above; format: cell-based; conditions: Acinetobacter calcoaceticus; clinical isolate A. calcoaceticus HNR904, Gram -, 10^6 viable cells per ml; read-out: minimum inhibitory concentration (MIC)
From the text: as §1

[12] = test system: S. marcescens HNR1792; assay: as above; format: cell-based; conditions: Serratia marcescens; clinical isolate S. marcescens HNR1792, Gram -, 10^6 viable cells per ml; read-out: minimum inhibitory concentration (MIC)
From the text: as §1

[13] = test system: S. aureus HPC308; assay: as above; format: cell-based; conditions: Staphylococcus aureus; clinical isolate S. aureus HPC308, Gram +, 10^6 viable cells per ml; read-out: minimum inhibitory concentration (MIC)
From the text: as §1

[14] = test system: E. cloacae HNR1946; assay: as above; format: cell-based; conditions: Enterobacter cloacae; clinical isolate E. cloacae HNR1946, Gram -, 10^6 viable cells per ml; read-out: minimum inhibitory concentration (MIC)
From the text: as §1

[15] = test system: E. faecalis HPC948; assay: as above; format: cell-based; conditions: Enterococcus faecalis; clinical isolate E. faecalis HPC948, Gram +, 10^6 viable cells per ml; read-out: minimum inhibitory concentration (MIC)
From the text: as §1

[16] = test system: S. marcescens HNR1544; assay: as above; format: cell-based; conditions: Serratia marcescens; clinical isolate S. marcescens HNR1544, Gram -, 10^6 viable cells per ml; read-out: minimum inhibitory concentration (MIC)
From the text: as §1

[17] = test system: E. cloacae HNR1939; assay: as above; format: cell-based; conditions: Enterobacter cloacae; clinical isolate E. cloacae HNR1939, Gram -, 10^6 viable cells per ml; read-out: minimum inhibitory concentration (MIC)
From the text: as §1

[18] = test system: K. pneumoniae HNR869; assay: as above; format: cell-based; conditions: Klebsiella pneumoniae; clinical isolate K. pneumoniae HNR869, Gram -, 10^6 viable cells per ml; read-out: minimum inhibitory concentration (MIC)
From the text: as §1

[19] = test system: K. pneumoniae HNR858; assay: as above; format: cell-based; conditions: Klebsiella pneumoniae; clinical isolate K. pneumoniae HNR858, Gram -, 10^6 viable cells per ml; read-out: minimum inhibitory concentration (MIC)
From the text: as §1

[20] = test system: S. aureusHPC292; assay: as above; format: cell-based; conditions: Staphylococcus aureus, read-out: minimum inhibitory concentration (MIC)
From the text: as §1

[21] = test system: A. calcoaceticus HNR916; assay: as above; format: cell-based; conditions: Acinetobacter calcoaceticus; clinical isolate A. calcoaceticus HNR916, Gram -, 10^6 viable cells per ml; read-out: minimum inhibitory concentration (MIC)
From the text: as §1

[22] = test system: E. faecalis HPC975; assay: as above; format: cell-based; conditions: Enterococcus faecalis; clinical isolate E. faecalis HPC975, Gram +, 10^6 viable cells per ml; read-out: minimum inhibitory concentration (MIC)
From the text: as §1

[23] = test system: E. faecalis HPC984; assay: as above; format: cell-based; conditions: Enterococcus faecalis; clinical isolate E. faecalis HPC984, Gram +, 10^6 viable cells per ml; read-out: minimum inhibitory concentration (MIC)
From the text: as §1

[24] = test system: K. pneumoniae HNR828; assay: as above; format: cell-based; conditions: Klebsiella pneumoniae; clinical isolate K. pneumoniae HNR828, Gram -, 10^6 viable cells per ml; read-out: minimum inhibitory concentration (MIC)
From the text: as §1

[25] = test system: S. marcescens HNR1767; assay: as above; format: cell-based; conditions: Serratia marcescens; clinical isolate S. marcescens HNR1767, Gram -, 10^6 viable cells per ml; read-out: minimum inhibitory concentration (MIC)
From the text: as §1

[26] = test system: E. cloacae HNR1941; assay: as above; format: cell-based; conditions: Enterobacter cloacae; clinical isolate E. cloacae HNR1941, Gram -, 10^6 viable cells per ml; read-out: minimum inhibitory concentration (MIC)
From the text: as §1

[27] = test system: A. calcoaceticus HNR939; assay: as above; format: cell-based; conditions: Acinetobacter calcoaceticus; clinical isolate A. calcoaceticus HNR939, Gram -, 10^6 viable cells per ml; read-out: minimum inhibitory concentration (MIC)
From the text: as §1

## O=C(O)c1cn(C2CC2)c2cc(N3CCNCC3)c(F)cc2c1=O [Reference Compound A, Ciprofloxacin]
[1]
  Induction of convulsions, i.c.v. (in words): convulsions were observed in all of the animals (each three animals)
  Induction of convulsion, i.c.v. (number of rats with convulsions): 3/3
[2]
  incidence rate of the aberration cells: less than 10%
[3]
  Induction of convulsions, i.p. (in words): convulsions were observed in the half of the animals
  Induction of convulsion, i.p. (number of mice with convulsions): 3/6

## Cc1c(N2CCNCC2)c(F)c(N)c2c(=O)c(C(=O)O)cn(C3CC3)c12 [Reference Compound B, 5-amino-1-cyclopropyl-6-fluoro-1,4-dihydro-8-methyl-4-oxo-7-piperazinylquinoline-3-carboxylic acid, reference compound]
[4]
  MIC: 0.1 µg/mL (≈ 0.277 µM)
[1]
  Induction of convulsions, i.c.v. (in words): convulsions were observed in all of the animals (each three animals)
  Induction of convulsion, i.c.v. (number of rats with convulsions): 3/3
[5]
  MIC: 0.2 µg/mL (≈ 0.555 µM)
[6]
  MIC: 0.006 µg/mL (≈ 0.0166 µM)
[7]
  MIC: 0.1 µg/mL (≈ 0.277 µM)
[8]
  MIC: 0.05 µg/mL (≈ 0.139 µM)
[9]
  Phototoxicity (number of guinea pigs with erythemas): 0/5
[10]
  MIC: 0.1 µg/mL (≈ 0.277 µM)
[11]
  MIC: 50 µg/mL (≈ 139 µM)
[12]
  MIC: 6.25 µg/mL (≈ 17.3 µM)
[13]
  MIC: 6.25 µg/mL (≈ 17.3 µM)
[14]
  MIC: 0.78 µg/mL (≈ 2.16 µM)
[15]
  MIC: 6.25 µg/mL (≈ 17.3 µM)
[16]
  MIC: 0.1 µg/mL (≈ 0.277 µM)
[17]
  MIC: 0.78 µg/mL (≈ 2.16 µM)
[18]
  MIC: 6.25 µg/mL (≈ 17.3 µM)
[19]
  MIC: 0.78 µg/mL (≈ 2.16 µM)
[20]
  MIC: 25 µg/mL (≈ 69.4 µM)
[21]
  MIC: 0.1 µg/mL (≈ 0.277 µM)
[22]
  MIC: 12.5 µg/mL (≈ 34.7 µM)
[23]
  MIC: 0.39 µg/mL (≈ 1.08 µM)
[24]
  MIC: 12.5 µg/mL (≈ 34.7 µM)
[25]
  MIC: 50 µg/mL (≈ 139 µM)
[26]
  MIC: 25 µg/mL (≈ 69.4 µM)
[27]
  MIC: 3.13 µg/mL (≈ 8.69 µM)
[3]
  Induction of convulsions, i.p. (in words): inducing actions of convulsions were not noticeable
  sedative symptoms considered as precursory symptoms of convulsions, i.p.: All of the animals exhibited sedative symptoms
  Induction of convulsion, i.p. (number of mice with convulsions): 0/6
[3]; listed as reference compound B
  sedative symptoms considered as precursory symptoms of convulsions, i.p.: all of the animals exhibited sedative symptoms
